Measured values as given in patent US20240228504A1, “SUBSTITUTED TRICYCLIC AMIDES, ANALOGUES THEREOF, AND METHODS USING SAME” (Arbutus Biopharma Corporation, priority 2020, published 2024).
pEC50: −log10 of the molar value.

The molecules below were run on HBV rcDNA in HepDE19 cells (assay: HepDE19 assay with bDNA quantitation of HBV rcDNA). Conditions: Hepatitis B virus, HepDE19, HepDE19 assay, inhibition of rcDNA formation, bDNA quantitation; read-out: DE-19bDNA EC50.
Format: cell-based, hepatitis B virus
For `CN(C(=O)c1csc(Br)c1)[C@@H]1COCc2[nH]c(=O)c3cc(F)c(F)cc3c21` [Compound 194, (S)-5-Bromo-N-(8,9-difluoro-6-oxo-1,4,5,6-tetrahydro-2H-pyrano[3,4-c]isoquinolin-1-yl)-N-methylthiophene-3-carboxamide], the pEC50 was 7.15.
Work on `CN(C(=O)C1Cc2ccccc2C1)[C@@H]1COCc2[nH]c(=O)c3cc(F)c(F)cc3c21` [Compound 195, (S)-N-(8,9-Difluoro-6-oxo-1,4,5,6-tetrahydro-2H-pyrano[3,4-c]isoquinolin-1-yl)-N-methyl-2,3-dihydro-1H-indene-2-carboxamide] yielded a pEC50 of 6.82.
`CN(C(=O)c1cnn(C(C)(C)C)c1)[C@@H]1COCc2[nH]c(=O)c3cc(F)c(F)cc3c21` [Compound 196, (S)-1-(tert-Butyl)-N-(8,9-difluoro-6-oxo-1,4,5,6-tetrahydro-2H-pyrano[3,4-c]isoquinolin-1-yl)-N-methyl-1H-pyrazole-4-carboxamide] was tested, and the pEC50 was 5.51.
Molecule `CN(C(=O)c1cnn(C(F)(F)F)c1)[C@@H]1COCc2[nH]c(=O)c3cc(F)c(F)cc3c21` [Compound 197, (S)-N-(8,9-Difluoro-6-oxo-1,4,5,6-tetrahydro-2H-pyrano[3,4-c]isoquinolin-1-yl)-N-methyl-1-(trifluoromethyl)-1H-pyrazole-4-carboxamide] has a pEC50 of 6.36.
`CN(C(=O)c1cc(Br)c[nH]1)[C@@H]1COCc2[nH]c(=O)c3cc(F)c(F)cc3c21` [Compound 198, (S)-4-Bromo-N-(8,9-difluoro-6-oxo-1,4,5,6-tetrahydro-2H-pyrano[3,4-c]isoquinolin-1-yl)-N-methyl-1H-pyrrole-2-carboxamide] showed a pEC50 of 6.66.
With `CN(C(=O)c1ccc(Cl)c(=O)[nH]1)[C@@H]1COCc2[nH]c(=O)c3cc(F)c(F)cc3c21` [Compound 201, (S)-5-Chloro-N-(8,9-difluoro-6-oxo-1,4,5,6-tetrahydro-2H-pyrano[3,4-c]isoquinolin-1-yl)-N-methyl-6-oxo-1,6-dihydropyridine-2-carboxamide] the pEC50 was 5.00.
For `CN(C(=O)c1cc2cc(Cl)ncc2[nH]1)[C@@H]1COCc2[nH]c(=O)c3cc(F)c(F)cc3c21` [Compound 204, (S)-5-Chloro-N-(8,9-difluoro-6-oxo-1,4,5,6-tetrahydro-2H-pyrano[3,4-c]isoquinolin-1-yl)-N-methyl-1H-pyrrolo[2,3-c]pyridine-2-carboxamide], the pEC50 was 7.40.
In the case of `CN(C(=O)c1c[nH]c(=O)c(Br)c1)[C@@H]1COCc2[nH]c(=O)c3cc(F)c(F)cc3c21` [Compound 205, (S)-5-Bromo-N-(8,9-difluoro-6-oxo-1,4,5,6-tetrahydro-2H-pyrano[3,4-c]isoquinolin-1-yl)-N-methyl-6-oxo-1,6-dihydropyridine-3-carboxamide], the pEC50 was 4.80.
Molecule `CN(C(=O)c1cc2nc(Cl)ccc2[nH]1)[C@@H]1COCc2[nH]c(=O)c3cc(F)c(F)cc3c21` [Compound 206, (S)-5-Chloro-N-(8,9-difluoro-6-oxo-1,4,5,6-tetrahydro-2H-pyrano[3,4-c]isoquinolin-1-yl)-N-methyl-1H-pyrrolo[3,2-b]pyridine-2-carboxamide] has a pEC50 of 6.20.
With `CN(C(=O)C1(O)CCCCC1)[C@@H]1COCc2[nH]c(=O)c3cc(F)c(F)cc3c21` [Compound 211, (S)-N-(8,9-Difluoro-6-oxo-1,4,5,6-tetrahydro-2H-pyrano[3,4-c]isoquinolin-1-yl)-1-hydroxy-N-methylcyclohexane-1-carboxamide] the pEC50 was 5.12.
Work on `CN(C(=O)c1cc2cc(F)c(C(F)F)cc2[nH]1)[C@@H]1COCc2[nH]c(=O)c3cc(F)c(F)cc3c21` [Compound 212, (S)-N-(8,9-Difluoro-6-oxo-1,4,5,6-tetrahydro-2H-pyrano[3,4-c]isoquinolin-1-yl)-6-(difluoromethyl)-5-fluoro-N-methyl-1H-indole-2-carboxamide] yielded a pEC50 of 8.00.
`CN(C(=O)c1cc2cc(Br)ncc2[nH]1)[C@@H]1COCc2[nH]c(=O)c3cc(F)c(F)cc3c21` [Compound 213, (S)-5-Bromo-N-(8,9-difluoro-6-oxo-1,4,5,6-tetrahydro-2H-pyrano[3,4-c]isoquinolin-1-yl)-N-methyl-1H-pyrrolo[2,3-c]pyridine-2-carboxamide] was tested, and the pEC50 was 7.10.
With `CN(C(=O)c1cc2cc(C(F)(F)F)cnc2[nH]1)[C@@H]1COCc2[nH]c(=O)c3cc(F)c(F)cc3c21` [Compound 214, (S)-N-(8,9-difluoro-6-oxo-1,4,5,6-tetrahydro-2H-pyrano[3,4-c]isoquinolin-1-yl)-N-methyl-5-(trifluoromethyl)-1H-pyrrolo[2,3-b]pyridine-2-carboxamide] the pEC50 was 6.00.
With `CN(C(=O)c1c[nH]c(=O)c(Cl)c1)[C@@H]1COCc2[nH]c(=O)c3cc(F)c(F)cc3c21` [Compound 215, (S)-5-Chloro-N-(8,9-difluoro-6-oxo-1,4,5,6-tetrahydro-2H-pyrano[3,4-c]isoquinolin-1-yl)-N-methyl-6-oxo-1,6-dihydropyridine-3-carboxamide] the pEC50 was 4.70.
`CN(C(=O)c1ccc(Br)c(=O)[nH]1)[C@@H]1COCc2[nH]c(=O)c3cc(F)c(F)cc3c21` [Compound 216, (S)-5-Bromo-N-(8,9-difluoro-6-oxo-1,4,5,6-tetrahydro-2H-pyrano[3,4-c]isoquinolin-1-yl)-N-methyl-6-oxo-1,6-dihydropyridine-2-carboxamide] showed a pEC50 of 5.14.
`CN(C(=O)c1cc2nc(C(F)(F)F)ccc2[nH]1)[C@@H]1COCc2[nH]c(=O)c3cc(F)c(F)cc3c21` [Compound 219, (S)-N-(8,9-difluoro-6-oxo-1,4,5,6-tetrahydro-2H-pyrano[3,4-c]isoquinolin-1-yl)-N-methyl-5-(trifluoromethyl)-1H-pyrrolo[3,2-b]pyridine-2-carboxamide] was tested, and the pEC50 was 5.84.
With `CN(C(=O)c1cc2ccc(F)cn2c1)[C@@H]1COCc2[nH]c(=O)c3cc(F)c(F)cc3c21` [Compound 224, (S)-N-(8,9-Difluoro-6-oxo-1,4,5,6-tetrahydro-2H-pyrano[3,4-c]isoquinolin-1-yl)-6-fluoro-N-methylindolizine-2-carboxamide] the pEC50 was 8.00.
Molecule `CN(C(=O)c1cnc(C(F)(F)F)[nH]1)[C@@H]1COCc2[nH]c(=O)c3cc(F)c(F)cc3c21` [Compound 225, (S)-N-(8,9-Difluoro-6-oxo-1,4,5,6-tetrahydro-2H-pyrano[3,4-c]isoquinolin-1-yl)-N-methyl-2-(trifluoromethyl)-1H-imidazole-5-carboxamide] has a pEC50 of 4.89.
`CN(C(=O)c1c[nH]c(=O)c(F)c1)[C@@H]1COCc2[nH]c(=O)c3cc(F)c(F)cc3c21` [Compound 226, (S)-N-(8,9-Difluoro-6-oxo-1,4,5,6-tetrahydro-2H-pyrano[3,4-c]isoquinolin-1-yl)-5-fluoro-N-methyl-6-oxo-1,6-dihydropyridine-3-carboxamide] showed a pEC50 of 4.90.
For `CN(C(=O)c1ccc2cccn2c1)[C@@H]1COCc2[nH]c(=O)c3cc(F)c(F)cc3c21` [Compound 227, (S)-N-(8,9-Difluoro-6-oxo-1,4,5,6-tetrahydro-2H-pyrano[3,4-c]isoquinolin-1-yl)-N-methylindolizine-6-carboxamide], the pEC50 was 7.70.
With `CN(C(=O)c1ccn2cccc2c1)[C@@H]1COCc2[nH]c(=O)c3cc(F)c(F)cc3c21` [Compound 228, (S)-N-(8,9-Difluoro-6-oxo-1,4,5,6-tetrahydro-2H-pyrano[3,4-c]isoquinolin-1-yl)-N-methylindolizine-7-carboxamide] the pEC50 was 7.22.
In the case of `CN(C(=O)C(O)(c1ccccc1)c1ccccc1)[C@@H]1COCc2[nH]c(=O)c3cc(F)c(F)cc3c21` [Compound 229, (S)-N-(8,9-Difluoro-6-oxo-1,4,5,6-tetrahydro-2H-pyrano[3,4-c]isoquinolin-1-yl)-2-hydroxy-N-methyl-2,2-diphenylacetamide], the pEC50 was 5.08.
With `CN(C(=O)c1cc2c(C(F)F)cc(F)cc2[nH]1)[C@@H]1COCc2[nH]c(=O)c3cc(F)c(F)cc3c21` [Compound 230, (S)-N-(8,9-Difluoro-6-oxo-1,4,5,6-tetrahydro-2H-pyrano[3,4-c]isoquinolin-1-yl)-4-(difluoromethyl)-6-fluoro-N-methyl-1H-indole-2-carboxamide] the pEC50 was 8.00.
`CN(C(=O)c1cc2cc(F)ccn2c1)[C@@H]1COCc2[nH]c(=O)c3cc(F)c(F)cc3c21` [Compound 231, (S)-N-(8,9-Difluoro-6-oxo-1,4,5,6-tetrahydro-2H-pyrano[3,4-c]isoquinolin-1-yl)-7-fluoro-N-methylindolizine-2-carboxamide] was tested, and the pEC50 was 8.00.
`CN(C(=O)c1cc2nc(F)ccc2[nH]1)[C@@H]1COCc2[nH]c(=O)c3cc(F)c(F)cc3c21` [Compound 232, (S)-N-(8,9-Difluoro-6-oxo-1,4,5,6-tetrahydro-2H-pyrano[3,4-c]isoquinolin-1-yl)-5-fluoro-N-methyl-1H-pyrrolo[3,2-b]pyridine-2-carboxamide] showed a pEC50 of 7.15.
`CN(C(=O)C1Cc2cc(F)c(F)cc2C1)[C@@H]1COCc2[nH]c(=O)c3cc(F)c(F)cc3c21` [Compound 233, (S)-N-(8,9-Difluoro-6-oxo-1,4,5,6-tetrahydro-2H-pyrano[3,4-c]isoquinolin-1-yl)-5,6-difluoro-N-methyl-2,3-dihydro-1H-indene-2-carboxamide] was tested, and the pEC50 was 7.40.
With `CN(C(=O)c1cnn(-c2ccc(F)cc2)c1)[C@@H]1COCc2[nH]c(=O)c3cc(F)c(F)cc3c21` [Compound 234, (S)-N-(8,9-Difluoro-6-oxo-1,4,5,6-tetrahydro-2H-pyrano[3,4-c]isoquinolin-1-yl)-1-(4-fluorophenyl)-N-methyl-1H-pyrazole-4-carboxamide] the pEC50 was 4.98.
Work on `CN(C(=O)c1cc(-c2ccc(F)cc2)no1)[C@@H]1COCc2[nH]c(=O)c3cc(F)c(F)cc3c21` [Compound 236, (S)-N-(8,9-Difluoro-6-oxo-1,4,5,6-tetrahydro-2H-pyrano[3,4-c]isoquinolin-1-yl)-3-(4-fluorophenyl)-N-methylisoxazole-5-carboxamide] yielded a pEC50 of 4.82.
In the case of `CN(C(=O)c1ccc(Oc2cccc(F)c2)cc1)[C@@H]1COCc2[nH]c(=O)c3cc(F)c(F)cc3c21` [Compound 237, (S)-N-(8,9-Difluoro-6-oxo-1,4,5,6-tetrahydro-2H-pyrano[3,4-c]isoquinolin-1-yl)-4-(3-fluorophenoxy)-N-methylbenzamide], the pEC50 was 5.16.
